In the supplement of paper PMC10307832:

What was measured:
Experiment in all cases: relative viability (nuclei count vs DMSO), 5 days (fraction); higher = more cells survive
RU-SKI 43 + Palbociclib = compound: CC[C@@H](C)CNCC(=O)N1CCC2=C([C@@H]1COC3=CC=CC(=C3)C)C=CS2 [RU-SKI 43] + CC(=O)c1c(C)c2cnc(Nc3ccc(N4CCNCC4)cn3)nc2n(C2CCCC2)c1=O [Palbociclib] (partner 0.5 µM)
In short: (§1)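 Medians of duplicate plates are given as relative viability. That measure is the nuclei count in treated wells divided by the count in vehicle wells. Counts were taken on 4× images of lung cancer cell lines in 1536-well plates, 5 days after pin-tool dosing the day after seeding with one drug alone or a fixed anchor-drug dose plus five library-drug doses (not always all listed) in √10 steps.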

Irinotecan + Phenformin = compound: CCc1c2c(nc3ccc(OC(=O)N4CCC(N5CCCCC5)CC4)cc13)-c1cc3c(c(=O)n1C2)COC(=O)[C@]3(O)CC [Irinotecan] + N=C(N)NC(=N)NCCc1ccccc1 [Phenformin] (partner 250 µM)
In short: as §1

Irinotecan + Olaparib = compound: CCc1c2c(nc3ccc(OC(=O)N4CCC(N5CCCCC5)CC4)cc13)-c1cc3c(c(=O)n1C2)COC(=O)[C@]3(O)CC [Irinotecan] + O=C(c1cc(Cc2n[nH]c(=O)c3ccccc23)ccc1F)N1CCN(C(=O)C2CC2)CC1 [Olaparib] (partner 8 µM)
In short: as §1

MK-8033 + Phenformin = compound: Cn1cc(-c2cnc3ccc4ccc(CS(=O)(=O)NCc5ccccn5)cc4c(=O)c3c2)cn1 [MK-8033] + N=C(N)NC(=N)NCCc1ccccc1 [Phenformin] (partner 250 µM)
In short: as §1

Row | Cell Line | relative viability (RU-SKI 43 + Palbociclib; first compound 0.1 µM) | relative viability (RU-SKI 43 + Palbociclib; first compound 0.3162 µM) | relative viability (RU-SKI 43 + Palbociclib; first compound 1 µM) | relative viability (RU-SKI 43 + Palbociclib; first compound 3.162 µM) | relative viability (RU-SKI 43 + Palbociclib; first compound 10 µM) | relative viability (Irinotecan + Phenformin; first compound 0.6325 µM) | relative viability (Irinotecan + Phenformin; first compound 2 µM) | relative viability (Irinotecan + Phenformin; first compound 6.325 µM) | relative viability (Irinotecan + Phenformin; first compound 20 µM) | relative viability (Irinotecan + Olaparib; first compound 0.6325 µM) | relative viability (Irinotecan + Olaparib; first compound 2 µM) | relative viability (Irinotecan + Olaparib; first compound 6.325 µM) | relative viability (Irinotecan + Olaparib; first compound 20 µM) | relative viability (MK-8033 + Phenformin; first compound 0.02 µM) | relative viability (MK-8033 + Phenformin; first compound 0.06325 µM) | relative viability (MK-8033 + Phenformin; first compound 0.2 µM) | relative viability (MK-8033 + Phenformin; first compound 0.6325 µM) | relative viability (MK-8033 + Phenformin; first compound 2 µM)
1 | HCC-366 | 0.274 | 0.447 | 0.416 | 0.396 | 0.264 | 0.495 | 0.371 | 0.0734 | 0.078 | 0.206 | 0.15 | 0.0823 | 0.0649 | 0.725 | 0.644 | 0.601 | 0.618 | 0.607
2 | EPLC-272H | 0.315 | 0.254 | 0.323 | 0.286 | 0.307 | 0.25 | 0.244 | 0.241 | 0.294 | 0.508 | 0.547 | 0.307 | 0.218 | 0.347 | 0.228 | 0.359 | 0.325 | 0.331
3 | NCI-H1792 | 0.692 | 0.764 | 0.685 | 0.698 | 0.662 | 0.273 | 0.424 | 0.314 | 0.28 | 0.332 | 0.327 | 0.198 | 0.298 | 0.346 | 0.267 | – | 0.282 | 0.225
4 | RERF-LC-KJ | 1.1 | 1.4 | 1.15 | 1 | 0.851 | 0.47 | 0.325 | 0.345 | 0.246 | 0.806 | 0.56 | 0.38 | 0.243 | 0.406 | 0.368 | 0.431 | 0.434 | 0.364
5 | NCI-H2126 | 0.355 | 0.37 | 0.38 | 0.355 | 0.353 | – | 0.53 | 0.355 | 0.285 | 0.388 | 0.387 | 0.303 | 0.27 | 0.511 | 0.494 | 0.497 | 0.533 | 0.51
6 | ABC-1 | 0.517 | 0.824 | 0.719 | 0.866 | 0.636 | – | 0.292 | 0.229 | 0.0948 | – | 0.68 | 0.421 | 0.375 | 0.202 | 0.219 | 0.227 | 0.281 | 0.211
7 | NCI-H1355 | 0.405 | 0.381 | 0.358 | 0.42 | 0.389 | – | 0.46 | 0.278 | 0.248 | – | 0.321 | 0.278 | 0.209 | 0.444 | 0.401 | 0.424 | 0.435 | 0.432
8 | A-427 | 0.536 | 0.532 | 0.523 | 0.564 | 0.503 | – | 0.21 | 0.173 | 0.184 | 0.718 | 0.551 | 0.271 | 0.104 | 0.308 | 0.371 | 0.289 | 0.325 | 0.374
9 | NCI-H3122 | 0.193 | 0.166 | 0.185 | 0.182 | 0.166 | 0.364 | 0.341 | 0.235 | 0.088 | 0.217 | 0.201 | 0.16 | 0.14 | 0.346 | 0.347 | 0.347 | 0.368 | 0.354
10 | SW 900 | 0.542 | 0.513 | 0.522 | 0.522 | 0.45 | 0.425 | 0.664 | 0.447 | 0.37 | – | 0.474 | 0.334 | 0.384 | 0.466 | 0.649 | 0.603 | 0.591 | 0.499
11 | NCI-H1437 | 0.32 | 0.294 | 0.348 | 0.31 | 0.246 | 0.296 | 0.306 | 0.163 | 0.144 | 0.434 | 0.429 | 0.316 | 0.272 | 0.293 | 0.291 | 0.291 | 0.324 | 0.267
12 | COR-L23 | 0.288 | 0.241 | 0.311 | 0.357 | 0.277 | 0.31 | 0.394 | 0.188 | 0.108 | 0.162 | 0.215 | 0.191 | 0.0964 | 0.41 | 0.422 | 0.402 | 0.432 | 0.421
13 | NCI-H1651 | 0.522 | 0.533 | 0.532 | 0.537 | 0.542 | 0.259 | 0.34 | 0.242 | 0.14 | 0.164 | 0.142 | 0.107 | 0.117 | 0.429 | 0.29 | 0.346 | 0.312 | 0.304
14 | NCI-H2087 | 0.253 | 0.215 | 0.288 | 0.238 | 0.19 | 0.218 | 0.341 | 0.192 | 0.176 | 0.175 | 0.196 | 0.154 | 0.173 | 0.5 | 0.434 | 0.417 | 0.435 | 0.386
15 | NCI-H2342 | 0.524 | – | 0.547 | 0.524 | 0.488 | 0.614 | 0.59 | 0.554 | 0.418 | 0.412 | 0.386 | 0.352 | 0.384 | 0.55 | 0.529 | 0.585 | 0.594 | 0.591
16 | ChaGo-K-1 | 0.919 | 1.05 | 1 | 0.976 | 0.956 | 0.413 | 0.352 | 0.191 | 0.218 | 0.223 | 0.267 | 0.245 | 0.221 | 0.477 | 0.479 | 0.435 | 0.512 | 0.5
17 | NCI-H661 | 0.384 | 0.398 | 0.401 | 0.348 | 0.344 | 0.254 | 0.329 | 0.277 | 0.191 | 0.583 | 0.556 | 0.396 | 0.233 | 0.26 | 0.254 | 0.27 | 0.267 | 0.292
18 | LXF-289 | 0.605 | 0.666 | 0.615 | 0.61 | 0.607 | 0.5 | 0.46 | 0.262 | 0.162 | 0.211 | 0.215 | 0.162 | 0.158 | 0.559 | 0.504 | 0.499 | 0.547 | 0.538
